For assay [1], the target named is T1, CacKam (Catenulispora acidiphila, UniProt C7Q5P8, E94A).
T1 construct: gene Caci_9046
In words: biochemical.

The target in assay [2] is T2, CacKam (Catenulispora acidiphila, UniProt C7Q5P8, S201A).
T2 construct: gene Caci_9046
In words: biochemical.

For assay [3], the target named is T3, CacKam (Catenulispora acidiphila, UniProt C7Q5P8).
T3 construct: gene Caci_9046
The note with it: 1 mM SAM; E. coli 30S subunits; 10 mM MgCl2; pH 7.5; 37 °C.

Assay [4] concerns the target T4, CacKam (Catenulispora acidiphila, UniProt C7Q5P8, W113F).
T4 construct: gene Caci_9046; full length 250 residues, N-terminal hexahistidine tag with thrombin site kept; E. coli BL21 (DE3)
In words: biochemical. Type of assay: binding. From the text:
(§1) isothermal titration calorimetry on CacKam

Assay [5] concerns the target T5, CacKam (Catenulispora acidiphila, UniProt C7Q5P8, W203A).
T5 construct: gene Caci_9046; full length 250 residues, N-terminal hexahistidine tag with thrombin site kept; E. coli BL21 (DE3)
The experiment in a line: biochemical. Type of assay: binding.
Text: as §1

The structures appear in SMILES notation.

Usually Kd stands for the equilibrium constant for the complex coming apart. High values mean lower affinity, low ones higher affinity.

T4 sequence (C7Q5P8 entry or part of it W113F): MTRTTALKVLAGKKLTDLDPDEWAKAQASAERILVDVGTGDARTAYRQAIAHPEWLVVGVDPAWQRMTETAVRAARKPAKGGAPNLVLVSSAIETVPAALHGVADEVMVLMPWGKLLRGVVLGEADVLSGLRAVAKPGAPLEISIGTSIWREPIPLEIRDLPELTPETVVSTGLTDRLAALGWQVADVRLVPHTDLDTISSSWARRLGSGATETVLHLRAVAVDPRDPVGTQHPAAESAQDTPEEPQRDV
T5 sequence (C7Q5P8 entry or part of it W203A): as the sequence (C7Q5P8 entry or part of it W113F) above
T2 sequence (C7Q5P8 entry or part of it S201A): as the sequence (C7Q5P8 entry or part of it W113F) above
T3 sequence (C7Q5P8 entry or part of it): as the sequence (C7Q5P8 entry or part of it W113F) above
T1 sequence (C7Q5P8 entry or part of it E94A): as the sequence (C7Q5P8 entry or part of it W113F) above

For `C[S+](CC[C@H](N)C(=O)O)C[C@H]1O[C@@H](n2cnc3c(N)ncnc32)[C@H](O)[C@@H]1O` (stereo partly shown) [SAM], the Kd on CacKam [1] worked out at 29 µM; at CacKam [2], 110 µM; at CacKam [4] it was 103 µM; on CacKam [5] it was 68 µM. For the same compound, the “30S methylation, reverse transcription primer extension” value at CacKam [3] was “Methylation by the wild-type enzyme was essentially the same under each condition as expected”.
Consider `Nc1ncnc2c1ncn2[C@@H]1O[C@H](CSCC[C@H](N)C(=O)O)[C@@H](O)[C@H]1O` [SAH], for which the Kd stood at 11 µM on CacKam [4] and 5.1 µM on CacKam [5].
